The test system of this data set is hiPSC-derived hepatocytes. Description: Lipid accumulation and insulin resistance in hiPSC-derived hepatocytes / human mini liver. The data set is classed as cell-based. The note with it: overnight culture. From the text: FIGS. 6A-6H are schematics and images showing generation of functional human mini-organs in a dish. FIG. 6A is a schematic showing generation of functional human mini organs including human islets, pancreas, liver, heart, and intestine. FIGS. 6B-6C show the generation of a human heart organoid. FIG. 6B (top) provides a schematic illustrating the protocol for differentiation of a human pluripotent stem cell (hPSC) into a cardiomyocyte (when cultured in 2D) or into a mini heart (when co-cultured with hADSCs and HUVECs in 3D). FIG. 6B (bottom left) provides a plot showing relative expression of cardiomyocyte-specific genes human MLC2a (hMLC2a), human Nkx2-5 (hNkx2-5), alpha myosin heavy chain (alphaMHC), and KCNQ1 before (day 0) and at day 18 of the differentiation protocol, with and without the PPARδ agonist GW501516. At the bottom right of FIG. 6B is a videomicrograph showing beating of the hiPSC-derived cardiomyocytes. […] FIGS. 6D-6F show generation of a human liver organoid. FIG. 6D (top) provides a schematic illustrating the protocol for differentiation of a human pluripotent stem cell (hPSC) into hepatocytes. FIG. 6D (bottom left) provides a plot showing relative expression of hepatocyte-specific genes AFP, ALB, and Cyp3a7, during the differentiation of 6 independent preparations. At the bottom right of FIG. 6D is a micrograph showing hiPSC-derived hepatocytes. […]

phosphatidic acid: the “lipid droplets in hiPSC-derived hepatocytes” value was “accumulation of lipid droplets”.

For the origin of these results see patent US11685901B2, “Compositions and methods for organoid generation and disease modeling” (Salk Institute for Biological Studies, priority 2016, dated 2023).
